Each structure is given as a SMILES string. pIC50: −log10 of the molar value. Where only a bound is given, the exact number is not on record here.

This assay addresses T1, Cbl-b (Homo sapiens, UniProt Q13191).
T1 construct: Biotin (biotinylated protein)
Nature of the assay: Cbl-b LCK Ub TR-FRET assay. To be noted: Biotin-Cbl-b, His-LCK; no LCK as low control, DMSO as high control; IC50s binned A through C; read-out: CBL-B_TR-FRET_AVG_IC50. The class given is biochemical. On the procedure: Compounds are 3-told serially diluted in DMSO in a 384-well polypropylene plate (e.g., #P-05525-BC; Labcyte) to generate a source plate with 10 concentrations of each compound, top concentration=2 mM. 80 nL of DMSO or compounds are transferred to each well of a black 384-well ProxiPlate (e.g., #6008260; PerkinElmer) using a Labcyte Echo. 1× assay buffer (50 mM HEPES pH7.0, 100 mM NaCl, 0.01% BSA, 0.01% Triton-X100, 1 mM DTT), 2× enzyme solution (16 nM Biotin-Cbl-b or 12 nM Biotin-c-Cbl in 1× assay buffer), 2× kinase mixture (120 nM His-LCK, 1 mM ATP, 10 mM MgCl2 in assay buffer) and 2.33× detection mixture (4.66× solution 1:163 nM Anti-HA-D2 antibody (e.g., #610HADAB; PerkinElmer), 27.96 nM Streptavidin-EU (e.g., #AD0062; PerkinElmer), 1.398 mM EDTA in 1× assay buffer+4.66× solution 2: […] UBE2D2/Methylated-HA-Ubiquitin thioester adduct (e.g., BostonBiochem) in 1× assay buffer) are prepared. […] of 2× enzyme solution are added to each well containing compound, briefly centrifuged to mix, and incubated for 60 min at room temperature. […] of 2× kinase mixture is added, briefly centrifuged to mix, and incubated for 90 min. at room temperature. […] of detection mixture is added to all wells and briefly centrifuged before incubating for 20 min at room temperature. Plates are read for TR-FRET using an Envision at excitation 340 nm, emission at 615 and 665 nm, 4 flashes per well. IC50 is generated using no LCK as the low control and DMSO as the high control. Compound IC50s were binned into A through C as follows: A indicates <100 nM, B indicates 100 nM-500 nM, and C indicates >500 nM.

T1 sequence (Q13191 10-426): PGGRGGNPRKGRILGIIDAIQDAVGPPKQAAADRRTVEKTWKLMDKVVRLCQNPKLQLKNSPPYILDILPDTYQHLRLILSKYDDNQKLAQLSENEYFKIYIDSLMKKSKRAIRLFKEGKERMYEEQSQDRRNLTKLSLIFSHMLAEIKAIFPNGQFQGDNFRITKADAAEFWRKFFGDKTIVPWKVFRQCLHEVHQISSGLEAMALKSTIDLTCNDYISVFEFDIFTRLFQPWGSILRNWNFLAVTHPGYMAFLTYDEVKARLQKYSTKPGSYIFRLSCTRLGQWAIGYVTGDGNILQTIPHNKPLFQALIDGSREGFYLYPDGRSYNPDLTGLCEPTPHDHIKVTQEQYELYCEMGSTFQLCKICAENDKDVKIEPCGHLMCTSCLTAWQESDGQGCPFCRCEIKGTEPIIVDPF

For `Cn1cnnc1-c1cc(F)ccc1-c1cccc(-n2cc3c(C(F)(F)F)cc(CNCC4(O)CCC4)cn3c2=O)c1` [Compound 1], the pIC50 is above 7.00.

Take `C[C@H]1CCCN(Cc2cc(C(F)(F)F)c3cn(-c4cc(-c5ccc(F)cc5-c5nncn5C)cc(C5CC5)n4)c(=O)n3c2)C1` [Compound 2]: the pIC50 is below 6.30.

`C[C@H]1CCCN(Cc2cc(C(F)(F)F)c3cn(-c4cc(-c5ccc(F)cc5-c5nncn5C)cc(Cl)n4)c(=O)n3c2)C1` [Compound 3]: the pIC50 was below 6.30.

Take `C[C@H]1CCCN(Cc2cc(C(F)(F)F)c3cn(-c4cc(-c5ccc(F)cc5-c5nncn5C)cc(Br)n4)c(=O)n3c2)C1` [Compound 4]: the pIC50 is below 6.30.

These data come from US20260085070A1, “HETEROCYCLIC CBL-B INHIBITORS FOR THE TREATMENT OF CANCER” (HOTSPOT THERAPEUTICS, INC., priority 2022, published 2026).
